Reference: PubChem BioAssay AID248 (DTP/NCI, 2004)
Where “and” joins values, the source holds several entries; their conditions need not be identical. Equal values may be shown once. Toxic doses and inconclusive results are not listed.

Test system: L1210 leukemia ip in BDF1 mice, survival T/C
Assay: NCI In Vivo Anticancer Drug Screen. Data for tumor model L1210 Leukemia (intraperitoneal) in B6D2F1 (BDF1) mice
Conditions: endpoint: mean survival time, higher = longer survival
Method in brief: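 Each compound was tested against a transplantable tumor grown in mice. The endpoint was survival, with treated animals benchmarked against vehicle controls as a simple ratio.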

[1] = dose: 100.0 mg/kg/injection, schedule: Q04DX003 (ip), vehicle: saline with Tween-80
[2] = dose: 200.0 mg/kg/injection, schedule: Q04DX003 (ip), vehicle: saline with Tween-80
[3] = dose: 100.0 mg/kg/injection, schedule: Q01DX001 (ip), vehicle: carboxymethylcellulose (CMC)
[4] = dose: 200.0 mg/kg/injection, schedule: Q01DX001 (ip), vehicle: carboxymethylcellulose (CMC)
[5] = dose: 400.0 mg/kg/injection, schedule: Q01DX001 (ip), vehicle: Klucel (hydroxypropylcellulose) (HPC)
[6] = dose: 400.0 mg/kg/injection, schedule: Q01DX001 (ip), vehicle: carboxymethylcellulose (CMC)
[7] = dose: 100.0 mg/kg/injection, schedule: Q04DX002 (ip), vehicle: saline with Tween-80
[8] = dose: 200.0 mg/kg/injection, schedule: Q04DX002 (ip), vehicle: saline with Tween-80
[9] = dose: 400.0 mg/kg/injection, schedule: Q04DX002 (ip), vehicle: saline with Tween-80
[10] = dose: 100.0 mg/kg/injection, schedule: Q04DX002 (ip), vehicle: Klucel (hydroxypropylcellulose) (HPC)
[11] = dose: 200.0 mg/kg/injection, schedule: Q04DX002 (ip), vehicle: Klucel (hydroxypropylcellulose) (HPC)
[12] = dose: 400.0 mg/kg/injection, schedule: Q04DX002 (ip), vehicle: Klucel (hydroxypropylcellulose) (HPC)
[13] = dose: 100.0 mg/kg/injection, schedule: Q01DX001 (ip), vehicle: saline
[14] = dose: 100.0 mg/kg/injection, schedule: Q04DX002 (ip), vehicle: saline
[15] = dose: 200.0 mg/kg/injection, schedule: Q01DX001 (ip), vehicle: saline
[16] = dose: 400.0 mg/kg/injection, schedule: Q01DX001 (ip), vehicle: saline
[17] = dose: 400.0 mg/kg/injection, schedule: Q04DX003 (ip), vehicle: saline with Tween-80
[18] = dose: 75.0 mg/kg/injection, schedule: Q01DX001 (ip), vehicle: other
[19] = dose: 100.0 mg/kg/injection, schedule: Q01DX001 (ip), vehicle: Klucel (hydroxypropylcellulose) (HPC)
[20] = dose: 200.0 mg/kg/injection, schedule: Q01DX001 (ip), vehicle: Klucel (hydroxypropylcellulose) (HPC)

`c1ccc([C@H]2CN3CCSC3=N2)cc1` was tested, and the T/C (dose: 0.15 mg/kg/injection, schedule: Q01DX009 (ip), vehicle: saline) was 94 % of control, the T/C (dose: 0.31 mg/kg/injection, schedule: Q01DX009 (ip), vehicle: saline) was 91 % of control and the T/C (dose: 0.63 mg/kg/injection, schedule: Q01DX009 (ip), vehicle: saline) was 105 % of control. For the same compound, the T/C (dose: 1.25 mg/kg/injection, schedule: Q01DX009 (ip), vehicle: saline) was 96 % of control, the T/C (dose: 2.5 mg/kg/injection, schedule: Q01DX009 (ip), vehicle: saline) was 98 % of control and the T/C (dose: 5.0 mg/kg/injection, schedule: Q01DX009 (ip), vehicle: saline) was 109 % of control. The T/C (dose: 10.0 mg/kg/injection, schedule: Q01DX009 (ip), vehicle: saline) was 93 % of control and the T/C (dose: 20.0 mg/kg/injection, schedule: Q01DX009 (ip), vehicle: saline) was 94 % of control.

With `CCCCOP(=O)(OCCCC)C(O)CCC` (stereo not given) the T/C (dose: 100.0 mg/kg/injection, schedule: Q01DX001 (ip), vehicle: saline with Tween-80) was 93 % of control, the T/C [1] was 104 % of control and the T/C (dose: 200.0 mg/kg/injection, schedule: Q01DX001 (ip), vehicle: saline with Tween-80) was 93 % of control. For the same compound, the T/C [2] was 98 % of control.

`O=C(Nc1nccs1)C(Cl)Cl` was tested, and the T/C [3] was 103 % of control, the T/C (dose: 177.0 mg/kg/injection, schedule: Q01DX001 (ip), vehicle: Klucel (hydroxypropylcellulose) (HPC)) was 105 % of control and the T/C [4] was 118 % of control. For the same compound, the T/C (dose: 266.0 mg/kg/injection, schedule: Q01DX001 (ip), vehicle: Klucel (hydroxypropylcellulose) (HPC)) was 107 % of control, the T/C [5] was 105 % of control and the T/C [6] was 249 % of control. The T/C (dose: 600.0 mg/kg/injection, schedule: Q01DX001 (ip), vehicle: Klucel (hydroxypropylcellulose) (HPC)) was 105 % of control.

For `COCCN=Cc1ccc(N(C)C)cc1`, the T/C [7] was 103 % of control, the T/C [8] was 100 % of control and the T/C [9] was 100 % of control.

With `CCCCS(=O)(=O)N1CC(C)OC(C)C1` (stereo not given) the T/C [10] was 97 % of control, the T/C [11] was 108 % of control and the T/C [12] was 97 % of control.

`NNc1cc(S(=O)(=O)O)cc(C(=O)O)c1O` was tested, and the T/C [13] was 107 % of control, the T/C (dose: 100.0 mg/kg/injection, schedule: Q01DX009 (ip), vehicle: saline) was 100 % of control and 103 % of control and the T/C [14] was 97 % of control and 90 % of control. The T/C [15] was 102 % of control, the T/C (dose: 200.0 mg/kg/injection, schedule: Q01DX009 (ip), vehicle: saline) was 110 % of control and 89 % of control and the T/C (dose: 200.0 mg/kg/injection, schedule: Q04DX002 (ip), vehicle: saline) was 100 % of control and 90 % of control. For the same compound, the T/C [16] was 102 % of control, the T/C (dose: 400.0 mg/kg/injection, schedule: Q01DX009 (ip), vehicle: saline) was 87 % of control and the T/C (dose: 400.0 mg/kg/injection, schedule: Q04DX002 (ip), vehicle: saline) was 108 % of control and 90 % of control.

`CCC(CO)Nc1nncc2ccccc12` (stereo not given) was tested, and the T/C [13] was 98 % of control, the T/C [15] was 96 % of control and the T/C [16] was 104 % of control.

In the case of `O=C(O)C1(Br)CC12c1ccccc1-c1ccccc12` (stereo not given), the T/C (dose: 100.0 mg/kg/injection, schedule: Q01DX001 (ip), vehicle: acetone) is reported as 92 % of control and the T/C (dose: 200.0 mg/kg/injection, schedule: Q01DX001 (ip), vehicle: acetone) is reported as 95 % of control.

For `CCOC(=O)c1c(/N=C/c2cc(Br)cc(Br)c2O)sc2c1CCCC2`, the T/C [7] was 91 % of control, the T/C [8] was 102 % of control and the T/C [9] was 105 % of control.

With `NC1=NCCS1` the T/C (dose: 25.0 mg/kg/injection, schedule: Q04DX002 (ip), vehicle: saline) was 103 % of control, the T/C (dose: 50.0 mg/kg/injection, schedule: Q04DX002 (ip), vehicle: saline) was 110 % of control and the T/C [14] was 95 % of control and 103 % of control.

In the case of `O=[N+]([O-])c1ccn(O)c(=Nc2ccccc2)c1`, the T/C [13] is reported as 108 % of control, the T/C [15] is reported as 104 % of control and the T/C [16] is reported as 100 % of control.

In the case of `CCCCCCCCCCCCCCCCCN`, the T/C (dose: 12.5 mg/kg/injection, schedule: Q01DX009 (ip), vehicle: Klucel (hydroxypropylcellulose) (HPC)) is reported as 100 % of control, the T/C (dose: 12.5 mg/kg/injection, schedule: Q04DX003 (ip), vehicle: Klucel (hydroxypropylcellulose) (HPC)) is reported as 93 % of control and the T/C (dose: 25.0 mg/kg/injection, schedule: Q01DX009 (ip), vehicle: Klucel (hydroxypropylcellulose) (HPC)) is reported as 101 % of control. The T/C (dose: 25.0 mg/kg/injection, schedule: Q04DX003 (ip), vehicle: Klucel (hydroxypropylcellulose) (HPC)) was 100 % of control and the T/C (dose: 50.0 mg/kg/injection, schedule: Q04DX003 (ip), vehicle: Klucel (hydroxypropylcellulose) (HPC)) was 102 % of control.

For `O=C1Nc2cccc3c2N(CCC3)C2=C1CCC2`, the T/C [10] was 105 % of control, the T/C [11] was 105 % of control and the T/C [12] was 108 % of control.

In the case of `c1ccc2c(c1)cc1ccc3cccc4ncc2c1c34`, the T/C [1] is reported as 86 % of control, the T/C [2] is reported as 96 % of control and the T/C [17] is reported as 88 % of control.

For `Cc1ccc(N=C=S)cc1F`, the T/C [18] was 95 % of control.

With `CCOC(=O)/C(O)=C\c1nnc(Cl)cc1Cl` the T/C (dose: 75.0 mg/kg/injection, schedule: Q04DX002 (ip), vehicle: Klucel (hydroxypropylcellulose) (HPC)) was 93 % of control, the T/C (dose: 150.0 mg/kg/injection, schedule: Q04DX002 (ip), vehicle: Klucel (hydroxypropylcellulose) (HPC)) was 96 % of control and the T/C (dose: 300.0 mg/kg/injection, schedule: Q04DX002 (ip), vehicle: Klucel (hydroxypropylcellulose) (HPC)) was 116 % of control.

For `NC(=O)c1ccc(O)cc1`, the T/C [3] was 92 % of control, the T/C [4] was 92 % of control and the T/C [6] was 89 % of control.

For `O=c1[nH]c(=O)c2nc3cc(Br)cnc3nc2[nH]1`, the T/C (dose: 100.0 mg/kg/injection, schedule: Q04DX003 (ip), vehicle: saline) was 95 % of control, the T/C (dose: 200.0 mg/kg/injection, schedule: Q04DX003 (ip), vehicle: saline) was 102 % of control and the T/C (dose: 400.0 mg/kg/injection, schedule: Q04DX003 (ip), vehicle: saline) was 103 % of control.

`Cc1cc([N+](=O)[O-])ccc1P(=O)(O)O` was tested, and the T/C [1] was 100 % of control and the T/C [2] was 108 % of control.

In the case of `COc1ccc(N(CCO)CCO)cc1`, the T/C (dose: 50.0 mg/kg/injection, schedule: Q01DX001 (ip), vehicle: saline) is reported as 96 % of control, the T/C [13] is reported as 102 % of control and the T/C [15] is reported as 96 % of control.

For `CCCCCc1nc2c(c3c1CCCC3)CCCC2`, the T/C [18] was 102 % of control and the T/C (dose: 150.0 mg/kg/injection, schedule: Q01DX001 (ip), vehicle: other) was 96 % of control.

For `CS(=O)(=O)OCCCN(CCCOS(C)(=O)=O)c1ccc(C=Nc2ccc(-c3csc(COc4ccc(Br)cc4Br)n3)cc2)cc1`, the T/C [1] was 91 % of control, the T/C [2] was 88 % of control and the T/C [17] was 86 % of control.

In the case of `CC(C)c1cc(C(C)C)nc(NNc2nc(C(C)C)cc(C(C)C)n2)n1`, the T/C (dose: 100.0 mg/kg/injection, schedule: Q01DX009 (ip), vehicle: saline with Tween-80) is reported as 102 % of control, the T/C (dose: 200.0 mg/kg/injection, schedule: Q01DX009 (ip), vehicle: saline with Tween-80) is reported as 100 % of control and the T/C (dose: 400.0 mg/kg/injection, schedule: Q01DX009 (ip), vehicle: saline with Tween-80) is reported as 98 % of control.

`CC(=O)Nc1ccc2c(c1)Cc1cc(N=Cc3ccc4c(c3)OCO4)ccc1-2` was tested, and the T/C [3] was 91 % of control, the T/C [4] was 104 % of control and the T/C [6] was 93 % of control.

With `COC(=O)C1(C)COP(=O)(N2CC2)OC1` (stereo not given) the T/C [13] was 101 % of control, the T/C [15] was 106 % of control and the T/C [16] was 95 % of control.

With `CC(CCC(=O)O)([N+](=O)[O-])[N+](=O)[O-]` the T/C [19] was 98 % of control, the T/C [20] was 102 % of control and the T/C [5] was 98 % of control.

With `Cc1cccc(CN2C(=O)c3ccccc3C2=O)c1` the T/C [19] was 100 % of control, the T/C [20] was 103 % of control and the T/C [5] was 102 % of control.

With `COc1cccc(/C2=C/CCCCCC2)c1` the T/C (dose: 50.0 mg/kg/injection, schedule: Q01DX009 (ip), vehicle: acetone) was 95 % of control, the T/C (dose: 100.0 mg/kg/injection, schedule: Q01DX009 (ip), vehicle: acetone) was 107 % of control and the T/C (dose: 100.0 mg/kg/injection, schedule: Q04DX003 (ip), vehicle: acetone) was 100 % of control. The T/C (dose: 200.0 mg/kg/injection, schedule: Q01DX009 (ip), vehicle: acetone) was 93 % of control, the T/C (dose: 200.0 mg/kg/injection, schedule: Q04DX003 (ip), vehicle: acetone) was 105 % of control and the T/C (dose: 400.0 mg/kg/injection, schedule: Q04DX003 (ip), vehicle: acetone) was 91 % of control.
